Experimental data taken from US20240182456A1, “2-((4-((S)-2-(4-CHLORO-2-FLUOROPHENYL)-2-METHYLBENZO[D][1,3]DIOXOL-4-YL)PIPERIDIN-1-YL)METHYL)-1-(((S)-OXETAN-2-YL)METHYL)-1H-IMIDAZOLE DERIVATIVES AS ACTIVATORS OF THE GLP1 RECEPTOR FOR THE TREATMENT OF OBESITY” (Novartis AG, priority 2021, published 2024).
Where two headings read alike, the source gives them in different places.

Tests used:
[1] = molecular target: human GLP1R (hGLP1R) (Homo sapiens, UniProt P43220); test: Human GLP1R cAMP agonist assay (GloSensor); format: cell-based; conditions: for Emax: read-out: Emax mean; for EC50: intracellular cAMP, mean n=3 where SEM is given
human GLP1R (hGLP1R), sequence (P43220 24-463): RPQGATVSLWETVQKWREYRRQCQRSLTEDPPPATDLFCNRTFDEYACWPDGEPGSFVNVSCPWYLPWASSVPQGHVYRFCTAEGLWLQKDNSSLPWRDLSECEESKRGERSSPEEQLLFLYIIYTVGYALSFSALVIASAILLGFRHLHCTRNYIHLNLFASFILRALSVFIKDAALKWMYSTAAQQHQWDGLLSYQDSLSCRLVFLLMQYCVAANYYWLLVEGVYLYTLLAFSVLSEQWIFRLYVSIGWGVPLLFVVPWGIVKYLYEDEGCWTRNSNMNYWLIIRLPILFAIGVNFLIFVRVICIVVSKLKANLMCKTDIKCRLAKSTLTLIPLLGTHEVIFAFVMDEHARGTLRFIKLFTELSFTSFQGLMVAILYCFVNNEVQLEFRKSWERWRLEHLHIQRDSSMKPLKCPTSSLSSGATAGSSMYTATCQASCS
Protocol: (§1) Compounds 1 to 31 were tested in the following cellular assays that measure the intracellular cAMP concentration, beta-arrestin recruitment and receptor internalization. The cAMP is generated by the activation of GLP1R. The cAMP data obtained is shown in Table 1 (where S.E.M. is included, mean n=3 independent experiments+/−S.E.M). Beta-arrestin is recruited upon activation of GLP1R and the data obtained are shown in Table 2 (mean n=2 independent experiments, +/−S.D). The extent to which the GLP1R is internalized into the cell and away from the plasma membrane following activation is also shown in Table 2 (mean n=2 independent experiments, +/−S.D). EC50 for each assay is defined as the concentration of the compound that leads to half of the maximum response (after baseline correction). Emax is defined as the maximum response observed for the test compound, normalized to the maximum response observed for the endogenous ligand (GLP1(7-36)) to GLP1R.
Human GLP1R cAMP Agonist Assay
The agonist activity of compounds was determined using the GloSensor™ cAMP Assay (Promega Corp.), which measures changes in the intracellular concentration of cAMP after ligand activation of GPCRs. The assay uses a biosensor encoded by pGloSensor™-22F cAMP plasmid (Promega, cat #E2301) with cAMP binding domains fused to a mutant form of Photinus pyralis luciferase. Binding to cAMP causes conformational changes that promote large increases in light output, which can be measured by a luminescence detector. HEK293-SNAP-hGLP1R-GloSensor cells stably overexpressing the human GLP1 receptor (hGLP1R) and pGloSensor™-22F were seeded in white 384-well poly-D-Lysine coated plates (Greiner Bio One, cat #781945) in CO2-independent media (Gibco cat #18045-088 with 1.0% FBS, 2 mM L-glutamine, penicillin and streptomycin) and incubated overnight at 37° C., 5% CO2 with humidity. The assay was started the following morning by adding an equal volume of CO2-independent media containing 4% v/v dilution of the GloSensor substrate (Promega, cat #E1291) to all wells. The cell plate was incubated at rt for 2 h in the dark. The Biomek 7 (Beckman Coulter) instrument was used for the liquid handling steps. To generate duplicate dose response curves, 3-fold serially diluted compounds were added in to the cell assay plate to a final volume of 60 μL with final concentrations ranging from 30 μM through 0.06 μM in CO2-independent media containing 0.1% BSA, 0.5 mM IBMX and 0.4% DMSO. In the same plate and assay buffer as the tested compounds, were EC100 control wells containing GLP1 (7-36) peptide (Bachem, cat #H-6795) at a final concentration of 2 nM and also EC0 control wells containing no peptide. This plate was incubated at rt in the dark for 12 min after adding the compounds to the cells. Luminescence was then measured with an Envision 2104 Multilabel reader with “TRF Light Unit, 337 nm” (PerkinElmer) using the Ultra-Sensitive protocol setting “384-well US luminescence detector” with the 384-well luminescence aperture, 0.1 seconds per well. cAMP activity was calculated as percent of the GLP1 (7-36) EC100 control wells: [(sample signal−mean EC0 signal)/(mean EC100 of GLP1 (7-36) signal−mean EC0 signal)}*100. Curve fitting for EC50 determinations was performed in the Helios module of the software package DAVID. The 4-parameter logistic model, Hill slope was used: y=Ainf+(A0−Ainf)/(1+(x/AC50)^Hill Slope) where y is the functional response; x is the compound concentration; A0 is the minimum value (at 0 dose); Ainf is the maximum value (at infinite dose); AC50 corresponds to the point of inflection (i.e. the point on the sigmoid shaped curve halfway between A0 and Ainf). The EC50 value was represented by the AC50 value calculated from Helios in μM. Emax is the maximal activity detected within the concentration range, derived from the fitted curve. […]

[2] = molecular target: human GLP1R (Homo sapiens, UniProt P43220); test: Human GLP1R DERET internalization assay; format: cell-based; conditions: HEK293-SNAP-hGLP1R-GloSensor cells; for EC50: mean n=2; for Emax: relative to GLP1(7-36)
human GLP1R, sequence (P43220 24-463): as above
Protocol: as §1
The extent to which agonists internalize the human GLP1R was determined based on an optimized version of a RealTime FRET-based ‘DERET’ (Dissociation Enhanced Resonance Energy Transfer) assay. The technology relies on labeling of the SNAP-tagged GPCR with a SNAP-Lumi-Terbium (donor fluorophore, Cisbio, cat #SSNPTBD). The compounds are incubated with the cells over-expressing the GPCR of interest in the presence of an excess of fluorescein (acceptor fluorophore). When the GPCR is on the cell surface, the donor signal is quenched by the acceptor and the donor/acceptor ratio is low. As the GPCR internalizes, the donor signal is no longer quenched, and the acceptor is no longer excited so the donor/acceptor ratio increases.
HEK293-SNAP-hGLP1R-GloSensor cells (stably overexpressing SNAP-tagged hGLP1R) were seeded overnight in white 384-well poly-D-Lysine coated plates (Greiner Bio One, cat #781945) in regular DMEM growth medium (Gibco, cat #11965-092, 10% heat-inactivated FBS, 10 mM HEPES, 1× penicillin/streptomycin, 0.5 mg/mL geneticin (Gibco, cat #10131-035) and 0.25 mg/mL hygromycin B (Invitrogen, cat #10687010). On the assay day, cell medium was removed and 100 nM SNAP-Lumi-Tb reagent was added in Opti-MEM solution. The cells were incubated at 37° C. for 1 h. Cells were washed using a plate washer in assay buffer [1×HBSS (10× Gibco, cat #14065-056), 20 mM Hepes (Gibco, cat #15630-080), 1 mM CaCl2 (Fluka, cat #21114-1L), 1 mM MgCl2 (Ambion, cat #AM9530G) pH7.4], and 20 μL buffer with 0.1% BSA was added to each well. After leaving cells to equilibrate for ˜15 min at 37° C., 10 μL of Fluorescein (sodium salt, Sigma, cat #F6377, diluted in buffer) was added at 25 μM final concentration. To generate triplicate dose response curves, compounds were serially diluted 3-fold in assay buffer, then added to the cell assay plate to a final volume of 40 μL and final top concentrations starting at 30 μM. In the same plate and assay buffer as the tested compounds, a GLP1 (7-36) peptide (Bachem, cat #H-6795) control curve was included at a final top concentration of 1 μM in order to establish EC100. EC0 wells with buffer only were also included. The plate FRET fluorescence was measured immediately using a Perkin Elmer Envision with LANCE/DELFIA D400 single mirror, excitation filter X320, and emission filters M615_203 (donor emission) and M515 (acceptor emission), and then measured every 30 min. […] Plates were kept at 37° C. between reads. Data was expressed as the ratio of donor/acceptor emissions using Microsoft Excel and plotted in GraphPad Prism. In order to determine EC50 and Emax for internalization, data was calculated and expressed as percent of the GLP1 (7-36) EC100 control wells: [(sample signal−mean EC0 signal)/(mean EC100 of GLP1 (7-36) signal−mean EC0 signal)]*100 using Microsoft Excel. Curve fitting for EC50 determinations was performed using GraphPad Prism. The 4-parameter logistic model, Hill slope was used:
Y=Bottom+(Top−Bottom)/(1+10^((Log EC50−X)*Hill Slope)), […]

[3] = HEK293-SNAP-hGLP1R-GloSensor cells, cAMP, normalized to GLP1(7-36) maximum response
[4] = HEK293-SNAP-hGLP1R-GloSensor cells

Compound | Emax [1, 3] [%] | EC50 [1, 4] [nM] | EC50 [2] [nM] | Emax [2] [%] | Emax [1] [%]
Cc1nc(CN2CCC(c3cccc4c3O[C@@](C)(c3ccc(Cl)cc3F)O4)CC2)n(C[C@@H]2CCO2)c1C#CC(=O)O [Compound C-22, 3-(2-((4-((S)-2-(4-chloro-2-fluorophenyl)-2-methylbenzo[d][1,3]dioxol-4-yl)piperidin-1-yl)methyl)-4-methyl-1-(((S)-oxetan-2-yl)methyl)-1H-imidazol-5-yl)propiolic acid] | 102 | 0.00397 | 18 | 76 | –
Cc1c(/C=C/C(=O)O)nc(CN2CCC(c3cccc4c3O[C@@](C)(c3ccc(Cl)cc3F)O4)CC2)n1C[C@@H]1CCO1 [Compound C-6, (E)-3-(2-((4-((S)-2-(4-chloro-2-fluorophenyl)-2-methylbenzo[d][1,3]dioxol-4-yl)piperidin-1-yl)methyl)-5-methyl-1-(((S)-oxetan-2-yl)methyl)-1H-imidazol-4-yl)acrylic acid] | 105 | 6.72 | > 30000 | 5 | –
Cc1nc(CN2CCC(c3cccc4c3O[C@@](C)(c3ccc(Cl)cc3F)O4)CC2)n(C[C@@H]2CCO2)c1/C=C(/F)C(=O)O [Compound C-19a, (E)-3-(2-((4-((S)-2-(4-chloro-2-fluorophenyl)-2-methylbenzo[d][1,3]dioxol-4-yl)piperidin-1-yl)methyl)-4-methyl-1-(((S)-oxetan-2-yl)methyl)-1H-imidazol-5-yl)-2-fluoroacrylic acid] | 110 | 0.0137 | 86 | 27 | –
Cc1nc(CN2CCC(c3cccc4c3O[C@@](C)(c3ccc(Cl)cc3F)O4)CC2)n(C[C@@H]2CCO2)c1C(=O)NCC(=O)O [Compound C-16, (2-((4-((S)-2-(4-chloro-2-fluorophenyl)-2-methylbenzo[d][1,3]dioxol-4-yl)piperidin-1-yl)methyl)-4-methyl-1-(((S)-oxetan-2-yl)methyl)-1H-imidazole-5-carbonyl)glycine] | 105 | 8.49 | > 30000 | 8 | –
Cc1nc(CN2CCC(c3cccc4c3O[C@@](C)(c3ccc(Cl)cc3F)O4)CC2)n(C[C@@H]2CCO2)c1/C=C(\F)C(=O)O [Compound C-19b, (Z)-3-(2-((4-((S)-2-(4-chloro-2-fluorophenyl)-2-methylbenzo[d][1,3]dioxol-4-yl)piperidin-1-yl)methyl)-4-methyl-1-(((S)-oxetan-2-yl)methyl)-1H-imidazol-5-yl)-2-fluoroacrylic acid] | 111 | 0.98 | > 30000 | 27 | –
C[C@]1(c2ccc(Cl)cc2F)Oc2cccc(C3CCN(Cc4nc(F)c(/C=C/C(=O)O)n4C[C@@H]4CCO4)CC3)c2O1 [Compound C-18, (E)-3-(2-((4-((S)-2-(4-chloro-2-fluorophenyl)-2-methylbenzo[d][1,3]dioxol-4-yl)piperidin-1-yl)methyl)-4-fluoro-1-(((S)-oxetan-2-yl)methyl)-1H-imidazol-5-yl)acrylic acid] | 116 | 0.0253 | 197 | 90 | –
Cc1nc(CN2CCC(c3cccc4c3O[C@@](C)(c3ccc(Cl)cc3F)O4)CC2)n(C[C@@H]2CCO2)c1CCC(=O)O [Compound C-14, 3-(2-((4-((S)-2-(4-chloro-2-fluorophenyl)-2-methylbenzo[d][1,3]dioxol-4-yl)piperidin-1-yl)methyl)-4-methyl-1-(((S)-oxetan-2-yl)methyl)-1H-imidazol-5-yl)propanoic acid] | 107 | 0.254 | 3370 | 28 | –
C[C@]1(c2ccc(Cl)cc2F)Oc2cccc(C3CCN(Cc4nc(C(F)(F)F)c(-c5nc(=O)o[nH]5)n4C[C@@H]4CCO4)CC3)c2O1 [Compound C-26, 3-(2-((4-((S)-2-(4-chloro-2-fluorophenyl)-2-methylbenzo[d][1,3]dioxol-4-yl)piperidin-1-yl)methyl)-1-(((S)-oxetan-2-yl)methyl)-4-(trifluoromethyl)-1H-imidazol-5-yl)-1,2,4-oxadiazol-5(2H)-one] | – | 0.922 | > 30000 | -6 | 99
Cc1nc(CN2CCC(c3cccc4c3O[C@@](C)(c3ccc(Cl)cc3F)O4)CC2)n(C[C@@H]2CCO2)c1CC(F)C(=O)O (stereo partly drawn) [Compound C-15, 3-(2-((4-((S)-2-(4-chloro-2-fluorophenyl)-2-methylbenzo[d][1,3]dioxol-4-yl)piperidin-1-yl)methyl)-4-methyl-1-(((S)-oxetan-2-yl)methyl)-1H-imidazol-5-yl)-2-fluoropropanoic acid] | 109 | 0.253 | > 30000 | 41 | –
Cc1c(-c2cncc(C(=O)O)c2)nc(CN2CCC(c3cccc4c3O[C@@](C)(c3ccc(Cl)cc3F)O4)CC2)n1C[C@@H]1CCO1 [Compound C-12, 5-(2-((4-((S)-2-(4-chloro-2-fluorophenyl)-2-methylbenzo[d][1,3]dioxol-4-yl)piperidin-1-yl)methyl)-5-methyl-1-(((S)-oxetan-2-yl)methyl)-1H-imidazol-4-yl)nicotinic acid] | 113 | 0.6 | > 30000 | 10 | –
